Reference: PubChem BioAssay AID264 (DTP/NCI, 2004)
“And” between values parts separate entries of the source, which are not always exact repeats. Equal entries are not always repeated. Inconclusive results are not listed.

Tested on: nude mice, LX-1 lung xenograft intrarenal, tumor weight T/C
Assay: NCI In Vivo Anticancer Drug Screen. Data for tumor model Human Lung LX-1 Xenograft (intrarenal inoculation) in NU/NU Swiss (nude) mice
Settings: endpoint: mean tumor weight change, higher = larger tumour
Procedure, shortened: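 Compound-treated mice carrying transplanted tumors were compared with vehicle-treated controls. Tumor size was the measured end point, and the value is the treated-group measurement divided by the control-group measurement (T/C).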

[1] = dose: 300.0 mg/kg/injection, schedule: Q04DX003 (sc), vehicle: saline with Tween-80
[2] = dose: 200.0 mg/kg/injection, schedule: Q01DX010 (sc), vehicle: saline with Tween-80
[3] = dose: 400.0 mg/kg/injection, schedule: Q01DX010 (sc), vehicle: saline with Tween-80
[4] = dose: 18.75 mg/kg/injection, schedule: Q04DX003 (sc), vehicle: saline with Tween-80
[5] = dose: 37.5 mg/kg/injection, schedule: Q04DX003 (sc), vehicle: saline with Tween-80
[6] = dose: 200.0 mg/kg/injection, schedule: Q04DX003 (sc), vehicle: saline with Tween-80
[7] = dose: 200.0 mg/kg/injection, schedule: Q04DX003 (sc), vehicle: Klucel (hydroxypropylcellulose) (HPC)
[8] = dose: 100.0 mg/kg/injection, schedule: Q04DX003 (sc), vehicle: saline with Tween-80
[9] = dose: 100.0 mg/kg/injection, schedule: Q04DX003 (sc), vehicle: Klucel (hydroxypropylcellulose) (HPC)

CO[C@@H]1[C@H](O)CC[C@]2(CO2)[C@H]1[C@@]1(C)O[C@@H]1CC=C(C)C
T/C (dose: 150.0 mg/kg/injection, schedule: Q04DX003 (sc), vehicle: suspension in saline): 79 % of control | T/C (dose: 300.0 mg/kg/injection, schedule: Q04DX003 (sc), vehicle: suspension in saline): 90 % of control | T/C (dose: 600.0 mg/kg/injection, schedule: Q04DX003 (sc), vehicle: suspension in saline): 63 % of control | T/C (dose: 1200.0 mg/kg/injection, schedule: Q04DX003 (sc), vehicle: suspension in saline): 63 % of control

ClC(Cl)(Cl)C1=NCc2nnn(Cc3ccccc3)c2N1
T/C [1]: 72 % of control | T/C (dose: 600.0 mg/kg/injection, schedule: Q04DX003 (sc), vehicle: saline with Tween-80): 67 % of control | T/C (dose: 1200.0 mg/kg/injection, schedule: Q04DX003 (sc), vehicle: saline with Tween-80): 90 % of control | T/C (dose: 2400.0 mg/kg/injection, schedule: Q04DX003 (sc), vehicle: saline with Tween-80): 36 % of control

C/C(=N/NC(N)=S)c1ccc2ccccc2c1
T/C (dose: 12.5 mg/kg/injection, schedule: Q01DX010 (sc), vehicle: saline with Tween-80): 63 % of control | T/C (dose: 25.0 mg/kg/injection, schedule: Q01DX010 (sc), vehicle: saline with Tween-80): 42 % of control | T/C [2]: 61 % of control | T/C [3]: 39 % of control

O=C(CCCN1CCC(O)(c2cccc(C(F)(F)F)c2)CC1)c1ccc(F)cc1
T/C (dose: 6.25 mg/kg/injection, schedule: Q01DX010 (sc), vehicle: Klucel (hydroxypropylcellulose) (HPC)): 52 % of control | T/C (dose: 12.5 mg/kg/injection, schedule: Q01DX010 (sc), vehicle: Klucel (hydroxypropylcellulose) (HPC)): 96 % of control | T/C (dose: 25.0 mg/kg/injection, schedule: Q01DX010 (sc), vehicle: Klucel (hydroxypropylcellulose) (HPC)): 60 % of control | T/C (dose: 50.0 mg/kg/injection, schedule: Q01DX010 (sc), vehicle: Klucel (hydroxypropylcellulose) (HPC)): 45 % of control and 54 % of control

O=C(O)C(O)C(O)C1[O][Sb][O]C1C(=O)O (centres undefined)
T/C (dose: 37.5 mg/kg/injection, schedule: Q04DX003 (sc), vehicle: saline): 106 % of control | T/C (dose: 75.0 mg/kg/injection, schedule: Q04DX003 (sc), vehicle: saline): 105 % of control

CCCCCCCCCCCCCCCC(=O)OCC1OC(n2ccc(N)nc2=O)C(O)C1O (centres undefined)
T/C [4]: 55 % of control | T/C [5]: 43 % of control and 60 % of control | T/C [6]: 70 % of control

Ic1ncnc2c1ncn2C1CCCO1 (centres undefined)
T/C [7]: 168 % of control | T/C (dose: 800.0 mg/kg/injection, schedule: Q04DX003 (sc), vehicle: Klucel (hydroxypropylcellulose) (HPC)): 107 % of control | T/C (dose: 1600.0 mg/kg/injection, schedule: Q04DX003 (sc), vehicle: Klucel (hydroxypropylcellulose) (HPC)): 41 % of control

CN(C)C=O
T/C (dose: 800.0 mg/kg/injection, schedule: Q01DX010 (sc), vehicle: saline): 91 % of control | T/C (dose: 1600.0 mg/kg/injection, schedule: Q01DX010 (sc), vehicle: saline): 74 % of control

CSC1SCC2C(=O)N(C)C(C(C)C)C(=O)OCC(NC(=O)c3cnc4ccccc4n3)C(=O)NC(C)C(=O)N(C)C1C(=O)N(C)C(C(C)C)C(=O)OCC(NC(=O)c1cnc3ccccc3n1)C(=O)NC(C)C(=O)N2C (centres undefined)
T/C (dose: 15.0 micrograms/kg/injection, schedule: Q01DX010 (sc), vehicle: saline): 97 % of control | T/C (dose: 30.0 micrograms/kg/injection, schedule: Q01DX010 (sc), vehicle: saline): 71 % of control | T/C (dose: 60.0 micrograms/kg/injection, schedule: Q01DX010 (sc), vehicle: saline): 48 % of control | T/C (dose: 120.0 micrograms/kg/injection, schedule: Q01DX010 (sc), vehicle: saline): 36 % of control | T/C (dose: 240.0 micrograms/kg/injection, schedule: Q01DX010 (sc), vehicle: saline): 65 % of control

O=NN(CCCl)C(=O)NC1CCC(=O)NC1=O (centres undefined)
T/C (dose: 1.56 mg/kg/injection, schedule: Q01DX010 (ip), vehicle: saline with Tween-80): 29 % of control | T/C (dose: 3.13 mg/kg/injection, schedule: Q01DX010 (ip), vehicle: saline with Tween-80): 3 % of control | T/C (dose: 3.13 mg/kg/injection, schedule: Q01DX010 (sc), vehicle: saline with Tween-80): 10 % of control | T/C (dose: 5.2 mg/kg/injection, schedule: Q04DX003 (ip), vehicle: saline with Tween-80): 5 % of control | T/C (dose: 6.25 mg/kg/injection, schedule: Q01DX010 (ip), vehicle: saline with Tween-80): -74 % of control | T/C (dose: 10.4 mg/kg/injection, schedule: Q04DX003 (ip), vehicle: saline with Tween-80): -94 % of control

O=C(NP(=O)(N1CC1)N1CC1)c1cc(I)ccc1I
T/C (dose: 50.0 mg/kg/injection, schedule: Q01DX010 (sc), vehicle: saline): 73 % of control | T/C (dose: 100.0 mg/kg/injection, schedule: Q01DX010 (sc), vehicle: saline): 54 % of control

O=C1N(Cl)C(=O)C(c2ccc(Cl)cc2)(c2ccc(Cl)cc2)N1Cl
T/C (dose: 50.0 mg/kg/injection, schedule: Q01DX010 (sc), vehicle: saline with Tween-80): 98 % of control | T/C [2]: 57 % of control | T/C [3]: 118 % of control

Nc1cc2c3c(cccc3c1)C(=O)N(CCN1CCCC1)C2=O
T/C (dose: 50.0 mg/kg/injection, schedule: Q04DX003 (sc), vehicle: saline with Tween-80): 42 % of control | T/C [8]: 79 % of control | T/C [6]: 108 % of control | T/C (dose: 400.0 mg/kg/injection, schedule: Q04DX003 (sc), vehicle: saline with Tween-80): 46 % of control

O=C1c2cccc3cc([N+](=O)[O-])cc(c23)C(=O)N1CCN1CCCC1
T/C (dose: 9.0 mg/kg/injection, schedule: Q04DX003 (sc), vehicle: saline with Tween-80): 104 % of control | T/C (dose: 18.0 mg/kg/injection, schedule: Q04DX003 (sc), vehicle: saline with Tween-80): 75 % of control | T/C (dose: 36.0 mg/kg/injection, schedule: Q04DX003 (sc), vehicle: saline with Tween-80): 74 % of control | T/C (dose: 72.0 mg/kg/injection, schedule: Q04DX003 (sc), vehicle: saline with Tween-80): 76 % of control

CC(C)=CCNc1ncnc2c1ncn2C1OC(CO)C(O)C1O (centres undefined)
T/C (dose: 200.0 mg/kg/injection, schedule: Q04DX003 (sc), vehicle: suspension in saline): 93 % of control | T/C (dose: 400.0 mg/kg/injection, schedule: Q04DX003 (sc), vehicle: suspension in saline): 112 % of control | T/C (dose: 800.0 mg/kg/injection, schedule: Q04DX003 (sc), vehicle: suspension in saline): 88 % of control

CC1(C)N=C(N)N=C(N)N1c1ccc(CCCCc2ccc(S(=O)(=O)F)cc2Cl)c(Cl)c1
T/C (dose: 12.5 mg/kg/injection, schedule: Q01DX010 (sc), vehicle: saline): 78 % of control

CC(=O)C1(O)Cc2c(O)c3c(c(O)c2C(OC2CC(N)C(O)C(C)O2)C1)C(=O)c1ccccc1C3=O (centres undefined)
T/C (dose: 0.5 mg/kg/injection, schedule: Q04DX003 (sc), vehicle: water): 120 % of control

O=C1C=CC(n2cc(F)c(=O)[nH]c2=O)O1 (centres undefined)
T/C (dose: 25.0 mg/kg/injection, schedule: Q04DX003 (sc), vehicle: Klucel (hydroxypropylcellulose) (HPC)): 57 % of control | T/C (dose: 50.0 mg/kg/injection, schedule: Q04DX003 (sc), vehicle: Klucel (hydroxypropylcellulose) (HPC)): 60 % of control | T/C [9]: 46 % of control

C=C1C(=O)O[C@@H]2[C@H](O)[C@@H](C)[C@@H]3C=CC(=O)[C@@]3(C)[C@H](OC(=O)C=C(C)C)[C@H]12
T/C (dose: 9.38 mg/kg/injection, schedule: Q04DX003 (sc), vehicle: saline with Tween-80): 95 % of control | T/C [4]: 101 % of control | T/C [5]: 100 % of control

C[N+](C)(C)c1cc2c(nn1)Nc1ccccc1S2
T/C (dose: 100.0 mg/kg/injection, schedule: Q01DX010 (sc), vehicle: Klucel (hydroxypropylcellulose) (HPC)): 89 % of control

COCC1OC2OC3C(COC)OC(OC4C(COC)OC(OC5C(COC)OC(OC6C(COC)OC(OC7C(COC)OC(OC8C(COC)OC(OC1C(O)C2O)C(O)C8O)C(O)C7O)C(O)C6O)C(O)C5O)C(O)C4O)C(O)C3O (centres undefined) (tested in a mixture with another compound)
T/C [7]: 156 % of control

CCNC(=O)[B-][N+](C)(C)C
T/C [9]: 108 % of control | T/C [7]: 73 % of control | T/C (dose: 400.0 mg/kg/injection, schedule: Q04DX003 (sc), vehicle: Klucel (hydroxypropylcellulose) (HPC)): 48 % of control

COc1cc2c[n+](C)c3c4cc5c(cc4ccc3c2cc1OC)OCO5
T/C [8]: 157 % of control | T/C [6]: 92 % of control | T/C (dose: 800.0 mg/kg/injection, schedule: Q04DX003 (sc), vehicle: saline with Tween-80): 109 % of control

O=S(=O)(O)O.[NH-]C1CCCCC1[NH-].[Pt+2] (centres undefined)
T/C (dose: 0.63 mg/kg/injection, schedule: Q01DX010 (sc), vehicle: dextrose): 85 % of control | T/C (dose: 1.25 mg/kg/injection, schedule: Q01DX010 (sc), vehicle: dextrose): 90 % of control | T/C (dose: 2.5 mg/kg/injection, schedule: Q01DX010 (sc), vehicle: dextrose): 82 % of control

O=C1NCC(Br)C(=O)N1 (centres undefined)
T/C (dose: 150.0 mg/kg/injection, schedule: Q04DX003 (sc), vehicle: saline with Tween-80): 99 % of control | T/C [1]: 90 % of control
